“And” between values parts separate entries of the source, which are not always exact repeats. Equal entries are not always repeated.
Tests used:
[1] = target: T1, human OCT1*1 (wild-type) (Homo sapiens, UniProt O15245); test: Cellular uptake ratio, OCT1-overexpressing HEK293 cells vs empty vector; assay type: cell-based
T1 sequence (O15245 1-554): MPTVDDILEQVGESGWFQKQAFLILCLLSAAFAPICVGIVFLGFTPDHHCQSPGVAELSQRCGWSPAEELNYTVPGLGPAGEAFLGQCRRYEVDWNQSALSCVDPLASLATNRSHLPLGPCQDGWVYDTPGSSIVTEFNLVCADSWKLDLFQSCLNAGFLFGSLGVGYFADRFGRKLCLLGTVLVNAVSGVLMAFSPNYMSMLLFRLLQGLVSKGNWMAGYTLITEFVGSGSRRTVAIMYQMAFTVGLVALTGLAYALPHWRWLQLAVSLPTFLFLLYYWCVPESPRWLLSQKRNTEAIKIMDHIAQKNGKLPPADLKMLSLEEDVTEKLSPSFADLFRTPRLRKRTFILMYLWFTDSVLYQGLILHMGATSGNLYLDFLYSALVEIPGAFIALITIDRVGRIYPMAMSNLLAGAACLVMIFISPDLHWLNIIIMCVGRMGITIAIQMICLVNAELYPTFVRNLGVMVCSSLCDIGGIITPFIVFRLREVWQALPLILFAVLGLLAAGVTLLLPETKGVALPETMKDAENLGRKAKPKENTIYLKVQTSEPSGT
Outline: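 Flp-In HEK293 cells stably expressing transporter, or empty pcDNA5/FRT vector as control, incubated at 37 °C in HBSS with 10 mM HEPES, pH 7.4, with substrate. Uptake quantified by LC-MS with internal standard and normalised to total protein. Ratio = total uptake in transporter cells divided by that in empty-vector cells.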

[2] = target: T1, human OCT1*1 (wild-type); test: Concentration-dependent uptake (transport kinetics) in HEK293 cells overexpressing OCT1 wild-type; settings: for OCT1 substrate classification from concentration-dependent uptake: good >5, poor 1–5, non-substrate <1 µL/mg protein/min or uptake not above empty vector; for Clint (±SEM): intrinsic clearance = ratio of Vmax and KM, OCT1 wild-type; for Vmax (±SEM): net uptake (OCT1 minus empty vector), HEK293, 0.1-1000 µM substrate, Michaelis–Menten
[3] = target: T2, variant human OCT1*2 (M420del) (Homo sapiens, UniProt O15245, DEL420-420); test: Cellular uptake by HEK293 cells overexpressing OCT1*2; assay type: cell-based; settings: for uptake by OCT1*2 in comparison to OCT1*1: 1 µM substance; for uptake of prostaglandins by OCT1*2 in comparison to wild-type: 1, 10 and 100 µM, 120 s
T2 construct: expressed in transfected cells
T2 sequence (O15245 with tags, fused parts or gaps DEL420-420): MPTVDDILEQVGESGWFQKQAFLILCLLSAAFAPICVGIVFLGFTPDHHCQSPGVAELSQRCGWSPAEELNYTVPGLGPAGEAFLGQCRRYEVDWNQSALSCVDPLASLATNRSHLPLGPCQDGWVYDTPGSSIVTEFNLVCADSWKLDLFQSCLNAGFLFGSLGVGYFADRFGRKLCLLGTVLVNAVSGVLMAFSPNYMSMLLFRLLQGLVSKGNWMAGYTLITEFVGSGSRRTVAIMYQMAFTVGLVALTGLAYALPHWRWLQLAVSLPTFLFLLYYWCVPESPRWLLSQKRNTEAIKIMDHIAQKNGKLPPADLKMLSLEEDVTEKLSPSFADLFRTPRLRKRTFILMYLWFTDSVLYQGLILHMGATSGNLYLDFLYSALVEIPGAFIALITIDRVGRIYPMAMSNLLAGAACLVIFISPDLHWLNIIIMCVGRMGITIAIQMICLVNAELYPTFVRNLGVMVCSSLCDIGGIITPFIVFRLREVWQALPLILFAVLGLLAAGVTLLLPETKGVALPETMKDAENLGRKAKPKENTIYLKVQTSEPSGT
Protocol: The wild-type cell lines of OCT1 and OCT2, as well as the variant cell lines OCT1*2 and *3, were generated using the Flp-In system (Thermo Fisher Scientific, Darmstadt, Germany) as described in previous publications. The cell line overexpressing OCT3 was a kind gift from Dr. Koepsell and Dr. Gorbulev (University of Würzburg, Germany). Cells transfected with the empty pcDNA5/FRT vector were used for the transport experiments as a control cell line. All cells were cultured approximately up to passage 30.
Forty-eight hours before the transport experiments, 600,000 cells were plated on 12-well plates pre-coated with poly-D-lysine and incubated at 37 °C with 5% CO2. The prepared 12-well plate with cells was positioned on a heating plate pre-warmed to 37 °C. After removing the medium, the cells were washed with 37 °C HBSS+ (10 mM HEPES in Hank’s balanced salt solution, pH 7.4). Then, one pre-defined concentration of a substrate was added to each well. The incubation period was stopped by adding 2 mL of 4 °C HBSS+ and removing the cells from the heating plate. The cells were washed twice with 4 °C HBSS+. For cell lysis, the cells were incubated for 15 min with 500 µL of 80% acetonitrile (LGC Standards, Wesel, Germany), which contained a respective internal standard (Table 1).
For concentration-dependent transport, the cells were incubated with defined substrate concentrations (0.1, 1, 10, 30, 100, 300, 600, 1000 µM) for the respective pre-defined incubation times. […] The uptake by a transporter was normalised to the uptake by empty vector-transfected cells. […] The results of transport experiments were normalized to the total protein concentration per well. Total protein quantification was performed using a bicinchoninic acid assay with bovine serum albumin as standard.
The ratios of cellular uptake were calculated by dividing the total uptake of transporter-overexpressing cells by the total uptake into empty vector transfected cells. The concentration-dependent cellular net uptake was used for analysis of transport kinetics by subtracting for each substrate concentration the uptake of empty vector-transfected cells from the uptake of transporter-overexpressing cells. […] The intrinsic clearance Clint was expressed with the ratio of Vmax and KM.

[4] = based on ratio uptake data at 1 µM
[5] = based on ratio uptake data at 100 µM (footnote *)

Row | SMILES | OCT1 substrate classification from concentration-dependent uptake [2] | Clint (±SEM) [2] | uptake by OCT1*2 in comparison to OCT1*1 [3] | Vmax (±SEM) [2] [pmol/mg Protein/min] | uptake ratio by OCT1 (normalised to empty vector) ([1]; 1 µM and 100 µM substance) | Clint (±SEM) ([2]; listed as emtricitabine) [µL/mg Protein/min] | Clint (±SEM) ([2]; listed as levodopa) [µL/mg Protein/min] | Clint (±SEM) ([2]; listed as prostaglandin E2) [µL/mg Protein/min] | Clint (±SEM) ([2]; listed as prostaglandin F2α) [µL/mg Protein/min] | OCT1 transport category [1, 4] | uptake ratio of prostaglandins by OCT1 wild-type ([1]; 1, 10 and 100 µM, 120 s) | OCT1 transport category [1, 5] | uptake of prostaglandins by OCT1*2 in comparison to wild-type [3]
1 | N=C(N)c1ccc(OCCCCCOc2ccc(C(=N)N)cc2)cc1 [Pentamidine, pentamidine] | poor substrate of OCT1 | 1.15 µL/mg Protein/min and 1.15 ± 1.75 µL/mg Protein/min | to a small extent | 143 ± 63.1 |  |  |  |  |  | +/− (poor transport with a Clint < 5 or ratio between 1–2 with statistical significance (p < 0.05)) |  |  | 
2 | Nc1nc(=O)n([C@@H]2CS[C@H](CO)O2)cc1F [Emtricitabine, emtricitabine] |  | 6.15 ± 2.82 µL/mg Protein/min | reduction in uptake |  | around 4 | 6.15 |  |  |  |  |  |  | 
3 | N[C@@H](Cc1ccc(O)c(O)c1)C(=O)O [Levodopa, levodopa] |  | 13.8 ± 8.6 µL/mg Protein/min |  | 4993 ± 884 |  |  | 13.8 |  |  | 0 (no transport by OCT1, OCT2, and OCT3 occurred (i.e., no kinetic parameters or uptake ratio <2 without significance)) |  |  | 
4 | COc1cc(Cc2cnc(N)nc2N)cc(OC)c1OC [Trimethoprim, trimethoprim] |  |  | reduction in uptake | 300 ± 16.9 |  |  |  |  |  | + (good substrates of OCTs when the intrinsic clearance is between 5–15 or the ratio is 2–10) |  |  | 

Second part, led by results:

Row | OCT1 substrate classification from concentration-dependent uptake [2] | Clint (±SEM) [2] | uptake by OCT1*2 in comparison to OCT1*1 [3] | Vmax (±SEM) [2] [pmol/mg Protein/min] | uptake ratio by OCT1 (normalised to empty vector) ([1]; 1 µM and 100 µM substance) | Clint (±SEM) ([2]; listed as emtricitabine) [µL/mg Protein/min] | Clint (±SEM) ([2]; listed as levodopa) [µL/mg Protein/min] | Clint (±SEM) ([2]; listed as prostaglandin E2) [µL/mg Protein/min] | Clint (±SEM) ([2]; listed as prostaglandin F2α) [µL/mg Protein/min] | SMILES | OCT1 transport category [1, 4] | uptake ratio of prostaglandins by OCT1 wild-type ([1]; 1, 10 and 100 µM, 120 s) | OCT1 transport category [1, 5] | uptake of prostaglandins by OCT1*2 in comparison to wild-type [3]
5 | poor transport efficiency | 2.57 ± 0.65 µL/mg Protein/min | reduction in uptake |  |  |  |  |  |  | Nc1ccn([C@H]2CC[C@@H](CO)O2)c(=O)n1 [Zalcitabine, zalcitabine] | + (good substrates of OCTs when the intrinsic clearance is between 5–15 or the ratio is 2–10) |  |  | 
6 | (poor) substrates of OCT1 | 3.50 ± 3.42 µL/mg Protein/min |  | 4119 |  |  |  | 3.5 |  | CCCCC[C@H](O)/C=C/[C@H]1[C@H](O)CC(=O)[C@@H]1C/C=C\CCCC(=O)O [Prostaglandin E2, prostaglandin E2] |  | strongly increased uptake by OCT1 at higher concentrations | + (good substrates of OCTs when the intrinsic clearance is between 5–15 or the ratio is 2–10) | reduced to the level of the control cell line
7 | (poor) substrates of OCT1 | 1.40 ± 1.09 µL/mg Protein/min |  | 1007 |  |  |  |  | 1.4 | CCCCC[C@H](O)/C=C/[C@@H]1[C@@H](C/C=C\CCCC(=O)O)[C@@H](O)C[C@H]1O [Prostaglandin F2α, prostaglandin F2α] |  |  | + (good substrates of OCTs when the intrinsic clearance is between 5–15 or the ratio is 2–10) | reduced to the level of the control cell line
